Test results taken from patent US20020197700A1, “Receptor of the EDb-fibronectin domains” (Schering AG, priority 2000, published 2002).
“Also recorded” adds a separate entry of the source.

Key:
endothelial cells (EC) = assay: proliferation assay (MTS) of endothelial cells; type: cell-based; settings: soluble ED-B 10 μg/l, 3 days; for action on human endothelial cell proliferation: bFGF-induced
Protocol: (§1) 1000 cells per bowl were incubated in 96-bowl plates. Soluble ED-B (10 μg/l) was added to the medium during the proliferation assay. After three days, the cell count was determined with the MTS assay. The proliferation of cells was induced by a basic […] growth factor (bFGF). […] In the case of human stromal cells on gelatin (SC/gelatin), even in the absence of bFGF proliferation occurred that considerably exceeded that of human endothelial cells.
(§2) For the proliferation assay, the following experimental method was followed:
(§3) Material: 96-bowl plate (flat-bottomed), Nunc
(§4) Medium: MCDB 131, Pen/Strep, amphotericin (0.25 μg/ml), heparin (20 μg/ml), heat-inactivated FCS (5%)
(§5) Cells, 500-1000 per bowl (96-bowl plate) in 100 μl, are cultivated for 3 days in a medium with bFGF (1-3 ng/ml) or VEGF (30-50 ng/ml). The exact amount should be determined for each batch by titration: the minimum concentration that reaches the maximum proliferation stimulation is optimal. A synchronization of the cells before the experiment is not necessary, but can be done. After 3 days, the cell count is determined with the MTS kit (Promega) according to manufacturer's information. It is recommended to measure the absorption at several points to obtain a maximum absorption in the linear range (0.5; 1; 2; 4 hours).
Negative control, no mitogen (no proliferation) (−bFGF/VEGF) Positive control, with mitogen (maximum stimulation) (+bFGF/VEGF)

stromal cells (SC) = assay: proliferation assay (MTS) of stromal cells; type: cell-based, human; settings: SC/gelatin; bFGF+ED-B; 3 days
Protocol: as §1, §2, §3, §4
as §5, with “hours). […]” for “hours).”

endothelial cells [1] = assay: adhesion test of endothelial cells to coated microtiter-bowl plates; type: cell-based; settings: plates coated with 0-40 μg/ml ED-B; 1 hour; crystal violet, A595
Protocol: As a negative control, bowls were used that were coated with 1 mg/ml of BSA (bovine serum albumin); the adhesion to BSA (<10%) was subtracted.
The adherence was quantified by staining with crystal violet, followed by a lysis with SDS. The quantification was carried out by measuring the extinction at 595 nm. A line drawn horizontally in the figure at A595 nm≈1.06 indicates the 100% adhesion to plasma-fibronectin.
For the adherence/adhesion test, the following experimental method was used:
Medium: MCDB 131, Pen/Strep, amphotericin (0.25 μg/ml), heparin (20 μg/ml), 0.1% BSA (Sigma, ethanol-precipitated)
0.1% crystal violet, 2% glutaric aldehyde in PBS, sterilized by filtration 2% SDS
Bowls of a 96-bowl plate (Nunc) are covered with protein for one hour at 37° C. With small proteins (<20 kDa) or peptides, it is recommended to allow the latter to dry on the plate (overnight without a cover under the sterile bank). The bowls are then saturated with 1% BSA for 1 hour at 37° C. Cells are dissolved in 1×trypsin, washed with 2% serum to inactivate the trypsin, and resuspended in medium. If antibodies or peptides are to be tested, the cells are pre-incubated in suspension with the latter for 30 minutes at 37° C. 10^4 cells per bowl (96-bowl plate) are incubated in a volume of 50-100 μl for 1 hour at 37° C. […] The absorption at 595 nm is measured. […]

[2] = test system: HUVEC (Human Umbilical Vein Endothelial Cells)-spheroids; assay: splintering test (tube formation test) of endothelial cell spheroids in collagen; type: cell-based; settings: for induction of capillary-like structures (tube formation); penetration of endothelial cells in collagen gels: over basal bFGF-induced penetration
Protocol: For the splintering test (tube formation test), the following experimental method was used:
Medium: MCDB 131, glutamine, Pen/Strep, amphotericin (0.25 μg/ml), heparin (20 μg/ml), heat-inactivated FCS (10%)
Growth medium: Medium with 2 ng/ml of bFGF and 10 ng/ml of VEGF
Endothelial cells are dissolved with trypsin/EDTA and diluted with 5000 cells/ml in medium with 0.24% methyl cellulose. 200 μl (1000 cells) each are added to bowls of a Greiner plate and incubated overnight. Round cell clusters (spheroids) are harvested with a 1 ml pipette with beveled tips and centrifuged off. Spheroids are resuspended in 1.2% methyl cellulose/FCS and mixed with neutralized collagen gel. EDb and bFGF were co-polymerized.
This peptide thus has a stimulating effect on the penetration of endothelial cells in collagen gels. This peptide therefore corresponds to the binding region of EDb and stimulates, analogously to EDb itself, the penetration of endothelial cells in the collagen.
The method described for FIG. 3 was followed.

endothelial cells [3] = assay: adhesion test to ED-B-coated plates after pre-incubation of the cells with synthetic ED-B peptides; type: cell-based; settings: cells pre-incubated with 250 μM peptide; A595
Protocol: Bowls of a 96-bowl plate (Nunc) are covered with protein for one hour at 37° C. With small proteins (<20 kDa) or peptides, it is recommended to allow the latter to dry on the plate (overnight without a cover under the sterile bank). The bowls are then saturated with 1% BSA for 1 hour at 37° C. Cells are dissolved in 1×trypsin, washed with 2% serum to inactivate the trypsin, and resuspended in medium. If antibodies or peptides are to be tested, the cells are pre-incubated in suspension with the latter for 30 minutes at 37° C. 10^4 cells per bowl (96-bowl plate) are incubated in a volume of 50-100 μl for 1 hour at 37° C. The supernatant is carefully poured off, the plate can be left inverted to drain on a paper towel for one minute and attached cells are stained with crystal violet/glutaric aldehyde for 15 minutes and attached. The bowls are washed three times with PBS, and the cells are then lysed by adding 2% SDS (15 minutes in the shaker). The absorption at 595 nm is measured. After washing three times with water, the cells, if desired, can be stained again.
The adherence was determined by the determination of the extinction at 595 nm (A595). The peptide designations that are applied in the figure are explained in FIG. 6. In this case, peptide sequence No. 043 corresponds to the sequence that is represented in SEQ ID NO: 1, peptide sequence No. 553 corresponds to SEQ ID NO: 2, peptide sequence No. 038 corresponds to SEQ ID NO: 3. A higher A595 value corresponds to a non-inhibited adherence, while a lower A595 value corresponds to an inhibition of the adherence by the corresponding peptide.
The method described for FIG. 4 was followed.

[4] = test system: band with an apparent molecular weight of 120-130 kDa (receptor of the EDb-fibronectin domains); assay: affinity chromatography of cell lysate from surface-labeled human skin stromal cells; type: binding; settings: Western Blot
Protocol: Method: The lysate is first put on the column three times.
EDTA-Elution: EDTA complexes the Ca and Mg ions. As a result, the endothelial-cell proteins are eluted, which require Ca and Mg for binding. 2×4 ml of EDTA-buffer is put on the column (or on both columns) and collected in two fractions (E1 and E2/BE1 and BE2) in Falcon tubes. Then, the tube contents are mixed, and […] is pipetted off into one (or two) Eppendorf vessel(s).
The fractions or pre-elution fractions that are thus obtained were separated with SDS-PAGE and subjected to a Western Blot under reducing conditions.
In the Western Blot shown in FIG. 11, traces 1-3 show the elution of an affinity column with Fn-7-8-9, while traces 4-6 show the elution of an affinity column of Fn-7-B-8-9. Traces 1 and 4 are pre-elution factors, while traces 2, 3 or 5, 6 show fractions 1 and 2 of the respective elution run.

[5] = target: T1, biontinylated protein with an apparent molecular weight of 120-130 kDa (receptor of the EDb-fibronectin domains) (Homo sapiens, UniProt P05556); assay: affinity chromatography of cell lysate from surface-labeled human skin endothelial cells; type: binding; settings: proliferating endothelial cells; EDTA elution; SDS-PAGE, Western Blot
T1 construct: proliferating endothelial cells that are biotinylated on the cell surface were lysed with a detergent; endogenous in cells; host or cells: proliferating human skin endothelial cells, surface-biotinylated, lysed in CHAPS
T1 sequence (P05556 21-798): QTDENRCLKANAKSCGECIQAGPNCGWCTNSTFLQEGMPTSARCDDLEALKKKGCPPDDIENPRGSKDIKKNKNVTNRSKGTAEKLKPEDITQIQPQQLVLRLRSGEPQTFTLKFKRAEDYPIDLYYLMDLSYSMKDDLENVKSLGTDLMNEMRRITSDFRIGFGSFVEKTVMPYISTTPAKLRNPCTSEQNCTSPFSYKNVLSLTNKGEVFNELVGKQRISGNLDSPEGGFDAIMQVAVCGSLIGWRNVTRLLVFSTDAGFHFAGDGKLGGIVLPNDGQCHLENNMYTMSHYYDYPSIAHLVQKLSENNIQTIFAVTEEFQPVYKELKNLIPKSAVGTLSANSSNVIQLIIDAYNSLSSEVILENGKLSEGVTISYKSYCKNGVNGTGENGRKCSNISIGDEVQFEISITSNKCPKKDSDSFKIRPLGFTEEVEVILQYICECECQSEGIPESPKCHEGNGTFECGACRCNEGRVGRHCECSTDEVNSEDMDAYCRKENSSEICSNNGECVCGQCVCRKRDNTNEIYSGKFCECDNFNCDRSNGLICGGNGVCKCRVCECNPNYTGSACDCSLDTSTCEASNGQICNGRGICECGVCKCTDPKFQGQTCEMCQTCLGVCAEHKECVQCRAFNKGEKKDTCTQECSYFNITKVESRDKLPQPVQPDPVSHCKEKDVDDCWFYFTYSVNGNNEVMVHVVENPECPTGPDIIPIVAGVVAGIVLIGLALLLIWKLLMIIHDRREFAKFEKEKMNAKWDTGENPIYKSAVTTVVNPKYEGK
T1 sequence (P17301 30-1181 partner): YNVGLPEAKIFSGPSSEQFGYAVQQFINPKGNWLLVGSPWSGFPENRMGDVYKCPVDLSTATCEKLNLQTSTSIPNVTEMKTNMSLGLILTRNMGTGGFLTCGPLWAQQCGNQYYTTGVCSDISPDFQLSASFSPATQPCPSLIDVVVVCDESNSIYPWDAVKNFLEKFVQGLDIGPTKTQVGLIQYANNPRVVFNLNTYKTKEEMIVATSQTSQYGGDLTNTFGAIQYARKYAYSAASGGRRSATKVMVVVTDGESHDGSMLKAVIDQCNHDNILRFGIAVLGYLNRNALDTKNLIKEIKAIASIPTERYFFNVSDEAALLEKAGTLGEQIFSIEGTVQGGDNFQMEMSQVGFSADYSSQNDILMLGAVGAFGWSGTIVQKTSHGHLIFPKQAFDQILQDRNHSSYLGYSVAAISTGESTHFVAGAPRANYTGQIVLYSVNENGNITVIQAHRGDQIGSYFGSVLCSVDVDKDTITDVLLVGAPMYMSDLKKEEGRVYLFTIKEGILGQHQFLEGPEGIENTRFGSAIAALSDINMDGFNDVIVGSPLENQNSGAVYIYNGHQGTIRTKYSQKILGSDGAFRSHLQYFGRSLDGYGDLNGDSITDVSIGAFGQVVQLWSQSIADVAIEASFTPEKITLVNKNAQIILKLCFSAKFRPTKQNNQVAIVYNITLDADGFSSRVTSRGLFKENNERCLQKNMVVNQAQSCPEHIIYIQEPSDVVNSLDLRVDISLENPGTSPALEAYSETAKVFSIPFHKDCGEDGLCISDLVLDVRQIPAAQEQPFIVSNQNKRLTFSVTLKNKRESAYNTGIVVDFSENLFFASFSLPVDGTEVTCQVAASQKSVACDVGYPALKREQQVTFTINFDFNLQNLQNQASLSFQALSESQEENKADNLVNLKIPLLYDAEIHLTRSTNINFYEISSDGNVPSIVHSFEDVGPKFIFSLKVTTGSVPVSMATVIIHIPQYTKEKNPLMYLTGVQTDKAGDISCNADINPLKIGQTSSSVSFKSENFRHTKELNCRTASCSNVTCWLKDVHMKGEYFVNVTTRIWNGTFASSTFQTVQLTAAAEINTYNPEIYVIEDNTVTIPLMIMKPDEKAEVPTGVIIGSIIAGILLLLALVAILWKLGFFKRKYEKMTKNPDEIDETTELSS
Protocol: In this respect, proliferating endothelial cells that are biotinylated on the cell surface were lysed with a detergent and subjected to an affinity chromatography, in which short fragments of fibronectin were coupled to sepharose with or without the inserted EDb-fibronectin domains (with the EDb-fibronectin domains=Fn-7-B-8-9, without the EDb-fibronectin domains=Fn-7-8-9). […] The elution is carried out by means of EDTA. Several fractions, described below, were collected. The fractions were then subjected to SDS-PAGE and studied with Western Blot with streptavidin-peroxidase and chemiluminescence (ECL). Traces 1 and 5 show pre-elution fractions, while traces 2, 3, 4 or 6, 7, 8 show the eluted fractions 1, 2 and 3. Traces 1-4 show the chromatography with Fn-7-8-9, while traces 5-8 show the chromatography with Fn-7-B-8-9.
Method: The cell culture bottles are washed respectively 3 times with PBS w/Ca+Mg before and after the biotinylation. Before the last washing process, the biotin buffer (1 mg/15 ml of PBS) is prepared. Into each of the bottles, 5 ml of the buffer (for 225 cm^2) or 12.5 ml (500 cm^2 plates) is pipetted into the center of the bottom, so that the volume can disperse over the entire bottom of the bottle while swinging around. The first culture bottle is then treated with half of the lysis buffer volume. […]

ED-B: recombinant His-tagged EDb-fibronectin domain (type III repeat), expressed in E. coli
action on human endothelial cell proliferation (endothelial cells (EC); EC/collagen): not as significant as in the flattening-out on gelatin
action on human endothelial cell proliferation (endothelial cells (EC); EC/gelatin): action of ED-B on human endothelial cell proliferation could be determined
action on proliferation of cells (extinction at 490 nm) (endothelial cells (EC); absence of bFGF, MTS assay): no action
proliferation of human stromal cells (stromal cells (SC)): could not be increased
adhesion of endothelial cells to coated surfaces (endothelial cells [1]): cells adhere
splintering of endothelial cells from spheroids ([2]; embedded in collagen, 10 μg/ml bFGF, 6 μg/ml ED-B): further stimulated; also recorded: significant increase in splintering
induction of capillary-like structures (tube formation); penetration of endothelial cells in collagen gels [2]: stimulates

1: synthetic peptide, partial sequence of the EDb-fibronectin domains, SEQ ID NO: 1 (VDITDSSIGLRWTPL) [compound 1]
inhibition of adherence of endothelial cells to ED-B-coated plates (endothelial cells [3]): inhibitory

peptide No. 2: synthetic peptide derived from loop 5 of ED-B, SEQ ID NO: 2 (GYYTVTGLEPGIDYD)
inhibition of adherence of endothelial cells to ED-B-coated plates (endothelial cells [3]): inhibitory
induction of capillary-like structures (tube formation); penetration of endothelial cells in collagen gels [2]: maximum effect

3: synthetic peptide, partial sequence of the EDb-fibronectin domains, SEQ ID NO: 3 (TGLEPGIDYDISVIT) [compound 3]
inhibition of adherence of endothelial cells to ED-B-coated plates (endothelial cells [3]): inhibitory

Fn-7-B-8-9: recombinant fibronectin fragment with domains 7, EDb, 8 and 9
prominent 120-130 kDa band in eluate of affinity column [4]: cannot be determined
binding of 120-130 kDa surface protein to sepharose-coupled fragment [5]: binds specifically
